Results: the NIST ThermoML archive (doi:10.1021/je401066j)
Numbers after ± are expanded uncertainties.

Conditions: 101 kPa, Liquid mixture 1, Drop volume

interfacial tension (288.2 K): 51.4 ± 0.4 mN/m
interfacial tension (293.2 K): 51 ± 0.4 mN/m
interfacial tension (298.2 K): 50.7 ± 0.4 mN/m
interfacial tension (303.2 K): 50.4 ± 0.4 mN/m
interfacial tension (308.2 K): 50.2 ± 0.4 mN/m
SMILES: CCCCCC [hexane] + O
